Measurements: US20160243176A1, “EXTRACTS FROM PLANTS OF THE MORINGACEAE FAMILY AND METHODS OF MAKING” (RUTGERS, THE STATE UNIVERSITY OF NEW JERSEY, priority 2013, published 2016)
pIC50: −log10 of the molar value. One block for each compound: values may come before it.

Legend:
[1] = after 6 days at 37° C.; Franklin et al., 2013; cited from earlier work
iNOS = assay: LPS-induced iNOS gene expression in RAW 264.7 macrophages; assay type: cell-based; conditions: 1 and 5 μM; RAW 264.7, LPS
Protocol: (§1) All reagents were supplied from Sigma-Aldrich Co. (St. Louis, Mo.) unless otherwise noted. RAW 264.7 macrophages (ATCC TIB-71) were maintained in Dulbecco's modified Eagle's medium (Caisson, North Logan, Utah) supplemented with 100 U/mL penicillin, 100 μg/mL streptomycin, and 10% fetal bovine serum. Cells were incubated at 37° C. in a 5% CO2 humidified atmosphere and subcultured by cell scraping. For experiments, RAW cells were plated at a density of 4×10^5 cells/mL in 24-well plates. Cells were incubated overnight (18 h), washed with warm 37° C. PBS, and medium was replaced fresh DMEM medium. […] Lipopolysaccharide (1 μg/mL) was added after 2 h incubation with treatments to elicit inflammatory responses. Cells were treated in duplicate or triplicate. After an additional 6 h incubation period, media were collected and cells were washed with PBS prior to collection in TRIzol® Reagent (Ambion, Life Technologies). […]
(§2) Total RNA was extracted from cells according to manufacturer's specifications. […] RNA integrity was evaluated by running about 1 μg of RNA on a 1% agarose gel. […]
(§3) Quantitative PCR amplifications were performed on an ABI 7300 Real-Time PCR System (Applied Biosystems) with the following thermal cycler profile: 2 minutes, 50° C.; 10 minutes, 95° C.; 15 seconds, 95° C.; 1 minute, 60° C. for the dissociation stage; 15 seconds, 95° C.; 1 minutes, 60° C.; and 15 seconds, 95° C. […]

TNF-α [2] = assay: TNF-α secretion analysis (ELISA) in RAW 264.7 macrophages; assay type: cell-based, Mouse; conditions: 5 μM
Protocol: (§4) All reagents were supplied from Sigma-Aldrich Co. (St. Louis, Mo.) unless otherwise noted. RAW 264.7 macrophages (ATCC TIB-71) were maintained in Dulbecco's modified Eagle's medium (Caisson, North Logan, Utah) supplemented with 100 U/mL penicillin, 100 μg/mL streptomycin, and 10% fetal bovine serum. Cells were incubated at 37° C. in a 5% CO2 humidified atmosphere and subcultured by cell scraping. For experiments, RAW cells were plated at a density of 4×10^5 cells/mL in 24-well plates. Cells were incubated overnight (18 h), washed with warm 37° C. PBS, and medium was replaced fresh DMEM medium. […] Lipopolysaccharide (1 μg/mL) was added after 2 h incubation with treatments to elicit inflammatory responses. Cells were treated in duplicate or triplicate. After an additional 6 h incubation period, media were collected and cells were washed with PBS prior to collection in TRIzol® Reagent (Ambion, Life Technologies). Samples were stored at −80° C. prior to processing.
After treatments, 1 mL of media was collected and immediately centrifuged at 13,500 g at 4° C. for 10 minutes. The supernatant was preserved at −80° C. until further processing with the BD OptEIATM Mouse TNF ELISA kit (BD Bioscience, San Jose, Calif.) following the manufacturer's protocol. […] TNF-α levels were quantified using a reference standard curve provided with the kit. Absorbance was read at 450 nm and corrected at 570 nm.

H4IIE rat hepatoma cells = assay: In vitro gluconeogenesis: glucose production; assay type: cell-based; conditions: HII4E liver cells; for activity on glucose production relative to SF: same concentrations; for pIC50: range of 5 concentrations
Protocol: H4IIE rat hepatoma cells (CRL-1548, American Type Culture Collection, Manassas, Va.) were assayed for glucose production as previously described (21). Cell viability was measured by the 3-(4,5-Dimethyl-2-thiazolyl)-2,5-diphenyltetrazolium bromide (MTT; TCI, Portland, Oreg.) assay (22). RNA extraction, cDNA synthesis and qPCR for gene expression of PEPCK and G6P were performed as described above.

[3] = rotoevaporation 1 hour at 50° C., compared to freeze-dried samples
Text: Drying the 1:5 ratio preparations can be achieved by rotoevaporation, followed by freeze-drying or spray drying. […] Further concentration of MICs and removal of sugars from the extract can also be performed with solid phase-extraction (SPE).

IL-1β = assay: LPS-induced IL-1β gene expression in RAW 264.7 macrophages; assay type: cell-based; conditions: 1 and 5 μM; RAW 264.7, LPS
Protocol: as §1, §2, §3

Nitric oxide (NO) = assay: Nitric oxide production analysis (Griess) in RAW 264.7 macrophages; assay type: cell-based; conditions: 5 μM
Protocol: as §4
After treatments, 1 mL of media was collected and assayed in duplicate following the Griess Reagent System provided by Promega (Promega Corporation; Madison, Wis.). The nitrite standard (0.1 M sodium nitrite) reference curve was built performing a serial dilution (0 to 100 μM). Absorbance was read at 540 nm.

IL-6 = assay: LPS-induced IL-6 gene expression in RAW 264.7 macrophages; assay type: cell-based; conditions: 5 μM; RAW 264.7, LPS
Protocol: as §1, §2, §3

TNF-α [4] = assay: LPS-induced TNF-α gene expression in RAW 264.7 macrophages; assay type: cell-based; conditions: any of the concentrations tested; RAW 264.7, LPS
Protocol: as §1, §2, §3

RAW 264.7 macrophages = assay: MTT-based cell viability assay; conditions: concentrations tested in anti-inflammatory assays
Protocol: The effect of the treatments on cell viability was measured using MTT [3-(4,5-dimethyl-2-thiazolyl)-2,5-diphenyltetrazolium bromide] (TCI, Portland, Oreg.) (Mosmann, 1983). MTT (5 mg/mL) was dissolved in PBS (Cayman Chemical, Ann Arbor, Mich.), filtered through a 0.22 μm membrane and added to treated cells during the last 3-4 hours of treatment. Media were carefully aspirated and cells were dissolved in DMSO. The absorbance was read at 570 nm.

NO formation = conditions: Cheenpracha et al., 2010; read-out: NO inhibition IC50; cited from earlier work
[5] = Compound stability of MICs in moringa extract stored at 37° C.; assay type: physicochemical; conditions: 37° C. for 30 days, compared to day 0

SMILES: C[S+]([O-])CCCCN=C=S (stereo not drawn) [SF, sulforaphane]
degradation of SF [1]: 75%

SMILES: C[C@@H]1O[C@@H](Oc2ccc(CN=C=S)cc2)[C@H](O)[C@H](O)[C@H]1O [MIC-1, 4-[(α-L-rhamnosyloxy)benzyl] isothiocyanate]
mRNA expression of iNOS (iNOS): significant reduction | reduction of TNF-α production (TNF-α [2]): 20% | activity on glucose production relative to SF (H4IIE rat hepatoma cells): superior activity to SF | loss of MIC under rotoevaporation conditions [3]: No significant loss | mRNA expression of IL-1β (IL-1β): significant reduction | NO formation (Nitric oxide (NO)): inhibited NO formation | IL-6 gene expression (IL-6): decrease IL-6 gene expression significantly | TNF-α gene expression (TNF-α [4]): no reduction | cytotoxicity (MTT cell viability) (RAW 264.7 macrophages): no signs of cytotoxicity | pIC50 (NO formation): 4.84 | degradation of MIC in moringa extract [5]: approximately 80%

pIC50 (H4IIE rat hepatoma cells; Rattus norvegicus): 3.10
SMILES: CN(C)C(=N)N=C(N)N [metformin, reference compound]

SMILES: CC(=O)O[C@@H]1[C@@H](O)[C@@H](O)[C@H](Oc2ccc(CN=C=S)cc2)O[C@H]1C [MIC-4, 4-[(4′-O-acetyl-α-L-rhamnosyloxy)benzyl] isothiocyanate]
mRNA expression of iNOS (iNOS): significant reduction | reduction of TNF-α production (TNF-α [2]): 27% | pIC50 (H4IIE rat hepatoma cells): 5.15 | activity on glucose production relative to SF (H4IIE rat hepatoma cells): superior activity to SF | loss of MIC under rotoevaporation conditions [3]: No significant loss | mRNA expression of IL-1β (IL-1β): significant reduction | NO formation (Nitric oxide (NO)): inhibited NO formation | TNF-α gene expression (TNF-α [4]): no reduction | cytotoxicity (MTT cell viability) (RAW 264.7 macrophages): no signs of cytotoxicity | pIC50 (NO formation): 5.57 | degradation of MIC in moringa extract [5]: ~20%
